Experimental data reported in patent US10875875B2, “Propionic acid derivatives and methods of use thereof” (Aviara Pharmaceuticals, Inc., priority 2017, dated 2020).

Biological target: α4β1 (Homo sapiens, UniProt P05556+P13612)
Experiment: α4β1 integrin inhibition, IC50
Type: binding
Conditions: read-out: α4β1 IC50

α4β1, sequence (P13612 34-1032): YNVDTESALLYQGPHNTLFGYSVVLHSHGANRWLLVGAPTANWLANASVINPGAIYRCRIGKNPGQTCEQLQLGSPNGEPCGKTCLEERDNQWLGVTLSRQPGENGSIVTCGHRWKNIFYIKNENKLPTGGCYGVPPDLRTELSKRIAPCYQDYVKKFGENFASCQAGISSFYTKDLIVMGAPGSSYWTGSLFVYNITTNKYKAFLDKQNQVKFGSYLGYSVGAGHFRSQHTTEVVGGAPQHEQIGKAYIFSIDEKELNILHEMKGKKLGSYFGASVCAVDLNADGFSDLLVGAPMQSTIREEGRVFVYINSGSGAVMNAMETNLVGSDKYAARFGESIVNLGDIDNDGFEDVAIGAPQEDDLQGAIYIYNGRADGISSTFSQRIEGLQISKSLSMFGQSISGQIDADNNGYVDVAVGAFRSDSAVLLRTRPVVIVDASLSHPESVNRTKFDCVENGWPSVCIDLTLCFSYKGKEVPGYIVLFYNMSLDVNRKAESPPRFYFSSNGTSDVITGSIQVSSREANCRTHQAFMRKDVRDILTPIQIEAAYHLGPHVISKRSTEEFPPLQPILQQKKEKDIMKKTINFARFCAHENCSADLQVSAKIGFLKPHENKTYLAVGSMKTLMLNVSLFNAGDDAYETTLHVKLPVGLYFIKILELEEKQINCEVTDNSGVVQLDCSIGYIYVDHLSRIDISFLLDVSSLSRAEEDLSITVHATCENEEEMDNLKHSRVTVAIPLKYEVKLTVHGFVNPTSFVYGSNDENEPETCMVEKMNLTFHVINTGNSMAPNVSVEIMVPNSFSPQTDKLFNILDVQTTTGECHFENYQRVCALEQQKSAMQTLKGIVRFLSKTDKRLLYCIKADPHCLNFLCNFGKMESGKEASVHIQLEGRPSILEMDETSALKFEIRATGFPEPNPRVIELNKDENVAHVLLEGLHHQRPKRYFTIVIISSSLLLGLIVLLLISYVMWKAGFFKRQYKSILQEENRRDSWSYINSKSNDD
α4β1, sequence (P05556 21-798): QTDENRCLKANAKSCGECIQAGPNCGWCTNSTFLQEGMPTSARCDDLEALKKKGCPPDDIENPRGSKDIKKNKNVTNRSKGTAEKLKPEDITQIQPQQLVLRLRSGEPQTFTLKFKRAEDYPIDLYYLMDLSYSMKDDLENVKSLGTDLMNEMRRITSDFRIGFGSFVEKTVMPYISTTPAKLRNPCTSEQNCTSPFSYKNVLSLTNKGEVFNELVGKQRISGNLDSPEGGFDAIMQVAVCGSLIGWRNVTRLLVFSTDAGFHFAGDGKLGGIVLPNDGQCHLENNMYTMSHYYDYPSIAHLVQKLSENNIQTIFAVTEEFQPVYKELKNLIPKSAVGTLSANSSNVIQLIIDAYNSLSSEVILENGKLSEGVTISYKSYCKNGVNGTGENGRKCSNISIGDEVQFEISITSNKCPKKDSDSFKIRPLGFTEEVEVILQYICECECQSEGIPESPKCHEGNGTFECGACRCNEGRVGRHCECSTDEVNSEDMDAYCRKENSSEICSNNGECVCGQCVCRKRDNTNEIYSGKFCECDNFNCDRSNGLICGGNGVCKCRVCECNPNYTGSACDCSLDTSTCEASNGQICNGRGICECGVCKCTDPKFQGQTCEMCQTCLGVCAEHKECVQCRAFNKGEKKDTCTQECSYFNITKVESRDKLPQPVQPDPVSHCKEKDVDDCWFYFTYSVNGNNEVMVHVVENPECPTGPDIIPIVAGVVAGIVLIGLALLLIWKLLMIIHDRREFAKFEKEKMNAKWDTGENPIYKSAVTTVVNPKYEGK

SMILES | IC50 [nM]
Cc1ccc(-c2cccc([C@H](CC(=O)O)NC(=O)Nc3c(O)c(C)cn(C)c3=O)c2)cc1C [1-495, sodium (S)-3-(3-(1,5-dimethyl-4-oxido-2-oxo-1,2-dihydropyridin-3-yl)ureido)-3-(3′,4′-dimethylbiphenyl-3-yl)propanoate] | < 200
Cc1cn(C)c(=O)c(NC(=O)N[C@@H](CC(=O)O)c2cccc(-c3ccccc3C(F)(F)F)c2)c1O [1-474, sodium (S)-3-(3-(1,5-dimethyl-4-oxido-2-oxo-1,2-dihydropyridin-3-yl)ureido)-3-(2′-(trifluoromethyl)biphenyl-3-yl)propanoate] | < 200
CCn1ccc2ccc(-c3cccc([C@H](CC(=O)O)NC(=O)Nc4c(O)ccn(C)c4=O)c3)cc21 [1-521, sodium (S)-3-(3-(1-ethyl-1H-indol-6-yl)phenyl)-3-(3-(1-methyl-4-oxido-2-oxo-1,2-dihydropyridin-3-yl)ureido)propanoate] | < 20
Cc1cn(C)c(=O)c(NC(=O)N[C@@H](CC(=O)O)c2cccc(-c3cccnc3)c2)c1O [1-452, sodium (S)-3-(3-(1,5-dimethyl-4-oxido-2-oxo-1,2-dihydropyridin-3-yl)ureido)-3-(3-(pyridin-3-yl)phenyl)propanoate] | < 200
COc1cccc(-c2cccc([C@H](CC(=O)O)NC(=O)Nc3c(O)ccn(C)c3=O)c2)c1 [1-501, sodium (S)-3-(3′-methoxybiphenyl-3-yl)-3-(3-(1-methyl-4-oxido-2-oxo-1,2-dihydropyridin-3-yl)ureido)propanoate] | < 20
Cn1ccc(O)c(NC(=O)N[C@@H](CC(=O)O)c2cccc(-n3cccn3)c2)c1=O [1-522, sodium (S)-3-(3-(1H-pyrazol-1-yl)phenyl)-3-(3-(1-methyl-4-oxido-2-oxo-1,2-dihydropyridin-3-yl)ureido)propanoate] | < 20
COc1ccc([C@H](CC(=O)O)NC(=O)Nc2c(O)ccn(C)c2=O)cc1-c1ccc(F)cc1F [1-519, sodium (S)-3-(2′,4′-difluoro-6-methoxybiphenyl-3-yl)-3-(3-(1-methyl-4-oxido-2-oxo-1,2-dihydropyridin-3-yl)ureido)propanoate] | < 20
Cn1ccc(O)c(NC(=O)N[C@@H](CC(=O)O)c2cccc(-c3ccc4c(c3)OCO4)c2)c1=O [1-516, sodium (S)-3-(3-(benzo[d][1,3]dioxol-5-yl)phenyl)-3-(3-(1-methyl-4-oxido-2-oxo-1,2-dihydropyridin-3-yl)ureido)propanoate] | < 20
CCn1cc(C)c(O)c(NC(=O)N[C@@H](CC(=O)O)c2cccc(-c3ccc(C)cc3)c2)c1=O [1-444, sodium (S)-3-(3-(1-ethyl-5-methyl-4-oxido-2-oxo-1,2-dihydropyridin-3-yl)ureido)-3-(4′-methylbiphenyl-3-yl)propanoate] | < 200
Cc1cn(C)c(=O)c(NC(=O)N[C@@H](CC(=O)O)c2cccc(-n3c(C)ccc3C)c2)c1O [1-483, sodium (S)-3-(3-(2,5-dimethyl-1H-pyrrol-1-yl)phenyl)-3-(3-(1,5-dimethyl-4-oxido-2-oxo-1,2-dihydropyridin-3-yl)ureido)propanoate] | < 20
Cc1cn(C)c(=O)c(NC(=O)N[C@@H](CC(=O)O)c2cccc(-c3ccccc3OC(F)(F)F)c2)c1O [1-467, sodium (S)-3-(3-(1,5-dimethyl-4-oxido-2-oxo-1,2-dihydropyridin-3-yl)ureido)-3-(2′-(trifluoromethoxy)biphenyl-3-yl)propanoate] | < 200
COc1cccc(-c2cccc([C@H](CC(=O)O)NC(=O)Nc3c(O)c(C)cn(C)c3=O)c2)c1OC [1-504, sodium (S)-3-(2′,3′-dimethoxybiphenyl-3-yl)-3-(3-(1,5-dimethyl-4-oxido-2-oxo-1,2-dihydropyridin-3-yl)ureido)propanoate] | < 20
Cc1cn(C)c(=O)c(NC(=O)NC(CC(=O)O)c2cccc(-n3cccc3)c2)c1O (stereo not drawn) [1-445, sodium 3-(3-(1H-pyrrol-1-yl)phenyl)-3-(3-(1,5-dimethyl-4-oxido-2-oxo-1,2-dihydropyridin-3-yl)ureido)propanoate] | < 200
COc1ccc(-c2cccc([C@H](CC(=O)O)NC(=O)Nc3c(O)ccn(C)c3=O)c2)cn1 [1-508, sodium (S)-3-(3-(6-methoxypyridin-3-yl)phenyl)-3-(3-(1-methyl-4-oxido-2-oxo-1,2-dihydropyridin-3-yl)ureido)propanoate] | < 20
COc1cccc(-c2cccc([C@H](CC(=O)O)NC(=O)Nc3c(O)ccn(C)c3=O)c2)c1F [1-509, sodium (S)-3-(2′-fluoro-3′-methoxybiphenyl-3-yl)-3-(3-(1-methyl-4-oxido-2-oxo-1,2-dihydropyridin-3-yl)ureido)propanoate] | < 20
Cc1cn(C)c(=O)c(NC(=O)NC(CC(=O)O)c2cccc(-c3cncnc3)c2)c1O (stereo not drawn) [1-478, sodium 3-(3-(1,5-dimethyl-4-oxido-2-oxo-1,2-dihydropyridin-3-yl)ureido)-3-(3-(pyrimidin-5-yl)phenyl)propanoate] | < 200
COc1ccc(-c2cccc([C@H](CC(=O)O)NC(=O)Nc3c(O)c(C)cn(C)c3=O)c2)c(OC)c1 [1-468, sodium (S)-3-(2′,4′-dimethoxybiphenyl-3-yl)-3-(3-(1,5-dimethyl-4-oxido-2-oxo-1,2-dihydropyridin-3-yl)ureido)propanoate] | < 200
Cc1cn(C)c(=O)c(NC(=O)N[C@@H](CC(=O)O)c2cc(-c3ccccc3)ccc2F)c1O [1-493, sodium (S)-3-(3-(1,5-dimethyl-4-oxido-2-oxo-1,2-dihydropyridin-3-yl)ureido)-3-(4-fluorobiphenyl-3-yl)propanoate] | < 200

Now from value to compound:

IC50 [nM] | SMILES
< 20 | Cn1ccc(O)c(NC(=O)N[C@@H](CC(=O)O)c2cc(OC(F)(F)F)cc(-c3ccccc3)c2)c1=O [1-615, sodium (S)-3-(3-(1-methyl-4-oxido-2-oxo-1,2-dihydropyridin-3-yl)ureido)-3-(5-(trifluoromethoxy)biphenyl-3-yl)propanoate]
< 20 | COc1cccc(-c2cc([C@H](CC(=O)O)NC(=O)Nc3c(O)cc(C)n(C)c3=O)ccc2OC(F)(F)F)c1 [1-635, sodium (S)-3-(3-(1,6-dimethyl-4-oxido-2-oxo-1,2-dihydropyridin-3-yl)ureido)-3-(3′-methoxy-6-(trifluoromethoxy)biphenyl-3-yl)propanoate]
< 20 | Cc1cscc1-c1cccc([C@H](CC(=O)O)NC(=O)Nc2c(O)ccn(C)c2=O)c1 [1-540, sodium (S)-3-(3-(1-methyl-4-oxido-2-oxo-1,2-dihydropyridin-3-yl)ureido)-3-(3-(4-methylthiophen-3-yl)phenyl)propanoate]
< 20 | Cc1ccccc1-c1cccc([C@H](CC(=O)O)NC(=O)Nc2c(O)cc(C)n(C)c2=O)c1 [1-599, sodium (S)-3-(3-(1,6-dimethyl-4-oxido-2-oxo-1,2-dihydropyridin-3-yl)ureido)-3-(2′-methylbiphenyl-3-yl)propanoate]
< 20 | Cc1ccc([C@H](CC(=O)O)NC(=O)Nc2c(O)ccn(C)c2=O)cc1-c1cccc(OC(F)(F)F)c1 [1-576, sodium (S)-3-(6-methyl-3′-(trifluoromethoxy)biphenyl-3-yl)-3-(3-(1-methyl-4-oxido-2-oxo-1,2-dihydropyridin-3-yl)ureido)propanoate]
< 20 | COc1cc(-c2ccc(F)cc2F)cc([C@H](CC(=O)O)NC(=O)Nc2c(O)cc(C)n(C)c2=O)c1 [1-581, sodium (S)-3-(2′,4′-difluoro-5-methoxybiphenyl-3-yl)-3-(3-(1,6-dimethyl-4-oxido-2-oxo-1,2-dihydropyridin-3-yl)ureido)propanoate]
< 20 | COc1cccc(-c2cc([C@H](CC(=O)O)NC(=O)Nc3c(O)ccn(C)c3=O)ccc2OC)c1 [1-524, sodium (S)-3-(3′,6-dimethoxybiphenyl-3-yl)-3-(3-(1-methyl-4-oxido-2-oxo-1,2-dihydropyridin-3-yl)ureido)propanoate]
< 20 | COc1cccc(-c2ccc([C@H](CC(=O)O)NC(=O)Nc3c(O)ccn(C)c3=O)s2)c1 [1-563, sodium (S)-3-(5-(3-methoxyphenyl)thiophen-2-yl)-3-(3-(1-methyl-4-oxido-2-oxo-1,2-dihydropyridin-3-yl)ureido)propanoate]
< 20 | Cn1ccc(O)c(NC(=O)N[C@@H](CC(=O)O)c2cccc(-c3ccoc3)c2)c1=O [1-559, sodium (S)-3-(3-(furan-3-yl)phenyl)-3-(3-(1-methyl-4-oxido-2-oxo-1,2-dihydropyridin-3-yl)ureido)propanoate]
< 20 | COc1cc(-c2cccc(OC(F)(F)F)c2)cc([C@H](CC(=O)O)NC(=O)Nc2c(O)cc(C)n(C)c2=O)c1 [1-568, sodium (S)-3-(3-(1,6-dimethyl-4-oxido-2-oxo-1,2-dihydropyridin-3-yl)ureido)-3-(5-methoxy-3′-(trifluoromethoxy)biphenyl-3-yl)propanoate]
< 20 | Cc1cccc(C)c1-c1ccc(F)c([C@H](CC(=O)O)NC(=O)Nc2c(O)cc(C)n(C)c2=O)c1 [1-589, sodium (S)-3-(3-(1,6-dimethyl-4-oxido-2-oxo-1,2-dihydropyridin-3-yl)ureido)-3-(4-fluoro-2′,6′-dimethylbiphenyl-3-yl)propanoate]
< 20 | Cn1ccc(O)c(NC(=O)N[C@@H](CC(=O)O)c2ccc(-c3ccc(F)cc3F)cc2)c1=O [1-621, sodium (S)-3-(2′,4′-difluorobiphenyl-4-yl)-3-(3-(1-methyl-4-oxido-2-oxo-1,2-dihydropyridin-3-yl)ureido)propanoate]
< 20 | COc1cccc(-c2ccc(F)c([C@H](CC(=O)O)NC(=O)Nc3c(O)cc(C)n(C)c3=O)c2)c1 [1-603, sodium (S)-3-(3-(1,6-dimethyl-4-oxido-2-oxo-1,2-dihydropyridin-3-yl)ureido)-3-(4-fluoro-3′-methoxybiphenyl-3-yl)propanoate]
< 20 | Cn1ccc(O)c(NC(=O)N[C@@H](CC(=O)O)c2cccc(-c3ccccc3)n2)c1=O [1-571, sodium (S)-3-(3-(1-methyl-4-oxido-2-oxo-1,2-dihydropyridin-3-yl)ureido)-3-(6-phenylpyridin-2-yl)propanoate]
< 20 | Cn1ccc(O)c(NC(=O)N[C@@H](CC(=O)O)c2cc(-c3ccc(F)cc3F)ccc2F)c1=O [1-591, sodium (S)-3-(3-(1-methyl-4-oxido-2-oxo-1,2-dihydropyridin-3-yl)ureido)-3-(2′,4,4′-trifluorobiphenyl-3-yl)propanoate]
